Data: PubChem BioAssay AID2060494 (Molecular Pharmacology Branch, DTP, NCI, 2025)

System: 435261-313-R-J1-PDC complex spheroid viability
Experiment: Anticancer human tumor 435261-313-R-J1-PDC patient-derived colon adenocarcinoma cell line growth inhibition [GQUAD]
Conditions: for IC50: curve of first compound; for viability, T/C: stronger effect = lower value
Text: DNA G-quadruplex Stabilizer Agents in Combinations in Complex Spheroids
A high-throughput screen of multi-cell type tumor spheroids was designed to identify active combinations of DNA G-quadruplex stabilizer agents and targeted small molecules. Complex spheroids include a stromal component modeled by human endothelial cells (HUVEC) and fibroblasts modeled by human mesenchymal stem cells (MSCs). The concentration ranges selected for each drug and investigational agent were based upon clinically achievable concentrations if the clinical Cmax of the agent was known.
Compounds. The drugs and investigational agents: pidnarulex (CX-5461; NSC782164), APTO-253 (NSC789042), BRACO-19 (NSC847499), peposertib (NSC802822), ceralasertib (NSC780249), elimusertib (NSC800525), camonsertib (NSC841442), AZD-1390 (NSC803789), olaparib (NSC753686), talazoparib (NSC767125), ART-558 (NSC835418), sotorasib (NSC818433), MRTX-1133 (NSC836407), SN-38 (NSC673596), topotecan (NSC609699), etoposide (NSC141540), doxorubicin (NSC123127), gemcitabine (NSC613327), 5-fluorouracil (NSC19893), paclitaxel (NSC125973), vemurafenib (NSC761431), panobinostat (NSC761190), R-306465 (JNJ-16241199; NSC773264), adavosertib (NSC754352), TP-3654 (NSC805149), carboplatin (NSC241240), KSQ-4279 (NSC840948), and staurosporine (NSC755774) were obtained from the National Cancer Institute (NCI) Developmental Therapeutics Program Chemical Repository (34). The FDA-approved anticancer drug set is available from the NCI Developmental Therapeutics Program. […] The stock solutions were prepared in dimethyl sulfoxide (DMSO, Sigma-Aldrich, St. Louis, MO, cat. D2650) at 800-fold the tested concentration and stored at -70 degrees C prior to their use. All drugs and investigational agents were tested over a range starting from a high concentration at or near the clinical Cmax and decreasing in half-log increments. If the clinical Cmax for an agent had not been determined, the highest concentration tested was 10 microM.
2.3 Cell Culture. All cells were maintained in an incubator at 37 degrees C and 5% CO2 with 95% humidity. The PDC lines were cultured according to standard operating procedures established by the NCI PDMR. All PDCs were thawed and cultured in Matrigel-coated flasks prepared with a working solution of 1X Ham's F-12 nutrient mix, without supplementation (Invitrogen, cat. 11765054), 100 U/mL penicillin-streptomycin (Invitrogen, cat. 15140122), and 2.5% Matrigel (Corning Inc., cat. 354248) for the first three passages. The 857933-349-R-J2-PDC line was cultured in 6C/Colon 1B media, which includes advanced DMEM/F-12 (Thermo Fisher Scientific, cat. 12634028), 10 mM HEPES (Thermo Fisher Scientific, cat. 15630080), 1X GlutaMAX supplement (Thermo Fisher Scientific, cat. 35050061), 0.1 mg/mL primocin (InvivoGen, cat. ant-pm-2), 10% defined fetal bovine serum, heat inactivated (HyClone Laboratories Inc., cat. SH30070.03HI), 50% L-WRN conditioned media (ATCC, cat. CRL-3276), 1.25 mM N-Acetyl-L-cysteine (Sigma-Aldrich, cat. A9165), 10 mM nicotinamide (Sigma-Aldrich, cat. N0636), 1X B-27 supplement (Thermo Fisher Scientific, cat. 17504044), 1X N-2 supplement (Thermo Fisher Scientific, cat. 17502048), 10 microM Y-27632 dihydrochloride (Tocris Bioscience, cat. 1254), and 50 ng/mL human EGF recombinant protein (Thermo Fisher Scientific, cat. PHG0311). The 485176-168-R4-J1-PDC line was cultured in Panc media, which includes all 6C/Colon 1B media components plus 100 ng/mL human FGF-10 (Thermo Fisher Scientific, cat. 100-26), 500 nM SB-431542 (Selleckchem, cat. S1067), and gastrin (Tocris, cat. 3006).
[…]

[1] = second compound 0.0316 µM, first compound 0.0316 µM
[2] = second compound 0.0316 µM, first compound 0.1 µM
[3] = second compound 0.0316 µM, first compound 0.316 µM
[4] = second compound 0.0316 µM, first compound 1 µM
[5] = second compound 0.0316 µM, first compound 3.16 µM
[6] = second compound 0.0316 µM, first compound 10 µM
[7] = second compound 0.1 µM, first compound 0.0316 µM
[8] = second compound 0.1 µM, first compound 0.1 µM
[9] = second compound 0.1 µM, first compound 0.316 µM
[10] = second compound 0.1 µM, first compound 1 µM
[11] = second compound 0.1 µM, first compound 3.16 µM
[12] = second compound 0.1 µM, first compound 10 µM
[13] = second compound 0.316 µM, first compound 0.0316 µM
[14] = second compound 0.316 µM, first compound 0.1 µM
[15] = second compound 0.316 µM, first compound 0.316 µM
[16] = second compound 0.316 µM, first compound 1 µM
[17] = second compound 0.316 µM, first compound 3.16 µM
[18] = second compound 0.316 µM, first compound 10 µM
[19] = second compound 1 µM, first compound 0.0316 µM
[20] = second compound 1 µM, first compound 0.1 µM
[21] = second compound 1 µM, first compound 0.316 µM
[22] = second compound 1 µM, first compound 1 µM
[23] = second compound 1 µM, first compound 3.16 µM
[24] = second compound 1 µM, first compound 10 µM
[25] = second compound 3.16 µM, first compound 0.0316 µM
[26] = second compound 3.16 µM, first compound 0.1 µM
[27] = second compound 3.16 µM, first compound 0.316 µM
[28] = second compound 3.16 µM, first compound 1 µM
[29] = second compound 3.16 µM, first compound 3.16 µM
[30] = second compound 3.16 µM, first compound 10 µM
[31] = second compound 10 µM, first compound 0.0316 µM
[32] = second compound 10 µM, first compound 0.1 µM
[33] = second compound 10 µM, first compound 0.316 µM
[34] = second compound 10 µM, first compound 1 µM
[35] = second compound 10 µM, first compound 3.16 µM
[36] = second compound 10 µM, first compound 10 µM
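Further: spheroids exposed to the agents for seven days before readout.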
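Wherever viability, T/C is given: percent of vehicle control viability with DMSO wells as 100%.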

CC1COCCN1c1cc(C2(S(C)(=N)=O)CC2)nc(-c2ccnc3[nH]ccc23)n1 (centres undefined) + CN(C)c1ccc(Nc2c3ccc(NC(=O)CCN4CCCC4)cc3nc3cc(NC(=O)CCN4CCCC4)ccc23)cc1
IC50 (second compound 0.0316 µM): > 10000 nM | IC50 (second compound 0.1 µM): > 10000 nM | IC50 (second compound 0.316 µM): > 10000 nM | IC50 (second compound 1 µM): > 10000 nM | IC50 (second compound 3.16 µM): > 10000 nM | IC50 (second compound 10 µM): 88.3 nM | viability, T/C [1]: 153% | viability, T/C [2]: 99.2% | viability, T/C [3]: 71.8% | viability, T/C [4]: 98% | viability, T/C [5]: 69.2% | viability, T/C [6]: 70.7% | viability, T/C [7]: 88.2% | viability, T/C [8]: 96.2% | viability, T/C [9]: 106% | viability, T/C [10]: 79.1% | viability, T/C [11]: 76.7% | viability, T/C [12]: 51.8% | viability, T/C [13]: 89.4% | viability, T/C [14]: 101% | viability, T/C [15]: 89.8% | viability, T/C [16]: 68.6% | viability, T/C [17]: 64.6% | viability, T/C [18]: 53.7% | viability, T/C [19]: 109% | viability, T/C [20]: 115% | viability, T/C [21]: 87.6% | viability, T/C [22]: 81.4% | viability, T/C [23]: 79% | viability, T/C [24]: 51.2% | viability, T/C [25]: 61.1% | viability, T/C [26]: 55.8% | viability, T/C [27]: 68.3% | viability, T/C [28]: 76.2% | viability, T/C [29]: 50.6% | viability, T/C [30]: 45.3% | viability, T/C [31]: 55.3% | viability, T/C [32]: 50.3% | viability, T/C [33]: 32.9% | viability, T/C [34]: 23.8% | viability, T/C [35]: 22.6% | viability, T/C [36]: 17%

COc1ccc([C@@H](O)c2cc(-c3ncnc4cc(N5CCOCC5)ccc34)c(F)cc2Cl)nn1 + CN(C)c1ccc(Nc2c3ccc(NC(=O)CCN4CCCC4)cc3nc3cc(NC(=O)CCN4CCCC4)ccc23)cc1
IC50 (second compound 0.0316 µM): 4190 nM | IC50 (second compound 0.1 µM): 4300 nM | IC50 (second compound 0.316 µM): 2380 nM | IC50 (second compound 1 µM): 2270 nM | IC50 (second compound 3.16 µM): 451 nM | IC50 (second compound 10 µM): 134 nM | viability, T/C [1]: 99% | viability, T/C [2]: 120% | viability, T/C [3]: 108% | viability, T/C [4]: 83.9% | viability, T/C [5]: 56.6% | viability, T/C [6]: 35.8% | viability, T/C [7]: 107% | viability, T/C [8]: 100% | viability, T/C [9]: 85.3% | viability, T/C [10]: 68.9% | viability, T/C [11]: 57.9% | viability, T/C [12]: 35.5% | viability, T/C [13]: 94.3% | viability, T/C [14]: 137% | viability, T/C [15]: 79.7% | viability, T/C [16]: 63.9% | viability, T/C [17]: 55.3% | viability, T/C [18]: 26.7% | viability, T/C [19]: 72% | viability, T/C [20]: 76.4% | viability, T/C [21]: 70.9% | viability, T/C [22]: 64.5% | viability, T/C [23]: 44.2% | viability, T/C [24]: 23.9% | viability, T/C [25]: 59.7% | viability, T/C [26]: 48% | viability, T/C [27]: 69% | viability, T/C [28]: 30% | viability, T/C [29]: 24.6% | viability, T/C [30]: 11.5% | viability, T/C [31]: 56.1% | viability, T/C [32]: 59.8% | viability, T/C [33]: 26.9% | viability, T/C [34]: 14.7% | viability, T/C [35]: 8.59% | viability, T/C [36]: 5.21%
